Data reported in patent US4745202A, “Aerocyanidin-antibiotic” (E. R. Squibb & Sons, Inc., priority 1987, dated 1988).
Converted amounts (≈) assume the structure as drawn.

Key:
gram positive organisms = experiment: activity against gram positive organisms; assay type: cell-based
[1] = tested on: Staphylococcus epidermidis; experiment: MIC by agar dilution technique; assay type: cell-based; conditions: 37° C., 18 hours
Description: (§1) The minimum inhibitory concentration (MIC) of aerocavin was determined by an agar dilution technique. The test organisms were prepared from frozen stocks and diluted to give a final level of 10^7 CFU/ml (CFU is colony forming units). Aerocavin was dissolved in the appropriate diluent at a concentration of 1,000 μg/ml. Two fold dilutions were made in Yeast Beef Broth (Difco), resulting in a range from 1,000 μg/ml to 0.5 μg/ml. A 1.5 ml sample of each dilution was placed into individual petri dishes to which 13.5 ml of K-10 agar* was added. The final drug concentration in the agar ranged from 100 μg/ml to 0.05 μg/ml. Organism growth control plates containing agar only were prepared and inoculated before and after the test plates. The organisms were applied to the surface of each plate with the Denley Multipoint Inoculator (which delivers approximately 0.001 ml of each organism) resulting in a final inoculum level of 10^4 CFU on the agar surface. |*K-10 agar The plates were incubated at 37° C. for 18 hours and the MIC's then determined. The MIC is the lowest concentration of compound inhibiting growth of the organism.

[2] = tested on: Acinetobacter calcoaceticus; experiment: MIC by agar dilution technique; assay type: cell-based; conditions: SC8333, SC No. 8333, 10^4 CFU, 37° C., 18 hours
Description: as §1

solubility = assay type: physicochemical
Staphylococcus aureus = experiment: MIC by agar dilution technique; assay type: cell-based; conditions: 37° C., 18 hours
Description: as §1, with “surface.” for “surface. |*K-10 agar The plates were incubated at 37° C. for 18 hours and the MIC's then determined. The MIC is the lowest concentration of compound inhibiting growth of the organism.”
(§2) The plates were incubated at 37° C. for 18 hours and the MIC's then determined. The MIC is the lowest concentration of compound inhibiting growth of the organism.
(§3) Using the methodology described for the determination of the biological activity of aerocavin, the biological activity of aerocyanidin was determined.

Pseudomonas aeruginosa = experiment: MIC by agar dilution technique; assay type: cell-based; conditions: 37° C., 18 hours
Description: as §1, with “surface.” for “surface. |*K-10 agar The plates were incubated at 37° C. for 18 hours and the MIC's then determined. The MIC is the lowest concentration of compound inhibiting growth of the organism.”
as §2, §3

Escherichia coli = experiment: MIC by agar dilution technique; assay type: cell-based; conditions: 37° C., 18 hours
Description: as §1, with “surface.” for “surface. |*K-10 agar The plates were incubated at 37° C. for 18 hours and the MIC's then determined. The MIC is the lowest concentration of compound inhibiting growth of the organism.”
as §2, §3

stability on storage = assay type: physicochemical; conditions: solid state, compared with ethyl acetate solution at 4° C.
Streptococcus agalactiae = experiment: MIC by agar dilution technique; assay type: cell-based; conditions: SC9287, SC No. 9287, 10^4 CFU, 37° C., 18 hours
Description: as §1, with “surface.” for “surface. |*K-10 agar The plates were incubated at 37° C. for 18 hours and the MIC's then determined. The MIC is the lowest concentration of compound inhibiting growth of the organism.”
as §2, §3

Salmonella typhosa = experiment: MIC by agar dilution technique; assay type: cell-based; conditions: Salmonella enterica, SC1195 / TYPHOSA, 18 h
Description: as §1, with “surface.” for “surface. |*K-10 agar The plates were incubated at 37° C. for 18 hours and the MIC's then determined. The MIC is the lowest concentration of compound inhibiting growth of the organism.”
as §2, §3

Streptococcus faecalis = experiment: MIC by agar dilution technique; assay type: cell-based; conditions: Enterococcus faecalis, SC9011; SC No. 9011; 10^4 CFU, 37° C., 18 hours
Description: as §1, with “surface.” for “surface. |*K-10 agar The plates were incubated at 37° C. for 18 hours and the MIC's then determined. The MIC is the lowest concentration of compound inhibiting growth of the organism.”
as §2, §3

Klebsiella pneumoniae = experiment: MIC by agar dilution technique; assay type: cell-based; conditions: SC9527, SC No. 9527, 10^4 CFU, 37° C., 18 hours
Description: as §1, with “surface.” for “surface. |*K-10 agar The plates were incubated at 37° C. for 18 hours and the MIC's then determined. The MIC is the lowest concentration of compound inhibiting growth of the organism.”
as §2, §3

Enterobacter cloacae = experiment: MIC by agar dilution technique; assay type: cell-based; conditions: SC8236, SC No. 8236, 10^4 CFU, 37° C., 18 hours
Description: as §1, with “surface.” for “surface. |*K-10 agar The plates were incubated at 37° C. for 18 hours and the MIC's then determined. The MIC is the lowest concentration of compound inhibiting growth of the organism.”
as §2, §3

Klebsiella aerogenes = experiment: MIC by agar dilution technique; assay type: cell-based; conditions: SC10440, SC No. 10440, 10^4 CFU, 37° C., 18 hours
Description: as §1, with “surface.” for “surface. |*K-10 agar The plates were incubated at 37° C. for 18 hours and the MIC's then determined. The MIC is the lowest concentration of compound inhibiting growth of the organism.”
as §2, §3

Proteus mirabilis = experiment: MIC by agar dilution technique; assay type: cell-based; conditions: SC3855, SC No. 3855, 10^4 CFU, 37° C., 18 hours
Description: as §1, with “surface.” for “surface. |*K-10 agar The plates were incubated at 37° C. for 18 hours and the MIC's then determined. The MIC is the lowest concentration of compound inhibiting growth of the organism.”
as §2, §3

Micrococcus luteus = experiment: MIC by agar dilution technique; assay type: cell-based; conditions: SC2495, SC No. 2495, 10^4 CFU, 37° C., 18 hours
Description: as §1, with “surface.” for “surface. |*K-10 agar The plates were incubated at 37° C. for 18 hours and the MIC's then determined. The MIC is the lowest concentration of compound inhibiting growth of the organism.”
as §2, §3

Shigella sonnei = experiment: MIC by agar dilution technique; assay type: cell-based; conditions: SC8449, SC No. 8449, 10^4 CFU, 37° C., 18 hours
Description: as §1, with “surface.” for “surface. |*K-10 agar The plates were incubated at 37° C. for 18 hours and the MIC's then determined. The MIC is the lowest concentration of compound inhibiting growth of the organism.”
as §2, §3

CCCCCCCCC[C@@H](O)C[C@H]1C[C@H](O)C/C(C)=C/C/C=C/C/C(CC(=O)O)=C\C(=O)O1 (relative stereo) [aerocavin, [3E,6E,9E,12α,14β(R*)]-12-hydroxy-14-(2-hydroxyundecyl)-10-methyl-2-oxooxacyclotetradeca-3,6,9-triene-4-acetic acid]
activity against gram positive organisms (gram positive organisms): has activity against gram positive organisms
MIC ([1]; SC9052, SC No. 9052, 10^4 CFU): 6.3 µg/mL (≈ 13.6 µM)
MIC ([1]; SC10547, SC No. 10547 (Penicillin^R), 10^4 CFU): 3.1 µg/mL (≈ 6.67 µM)
MIC [2]: 12.5 µg/mL (≈ 26.9 µM)
solubility (solubility; in heptane): less soluble
solubility (solubility; in methanol, acetone, ethyl acetate): substantially soluble
solubility (solubility; in water): insoluble
MIC (Staphylococcus aureus; SC1276, SC No. 1276, 10^4 CFU): 6.3 µg/mL (≈ 13.6 µM)
MIC (Staphylococcus aureus; SC2399, SC No. 2399, 10^4 CFU): 6.3 µg/mL (≈ 13.6 µM)
MIC (Staphylococcus aureus; SC9593, SC No. 9593 (Penicillin^R), 10^4 CFU): 6.3 µg/mL (≈ 13.6 µM)
MIC (Staphylococcus aureus; SC10016, SC No. 10016 (Tetracycline^R), 10^4 CFU): 3.1 µg/mL (≈ 6.67 µM)
MIC (Staphylococcus aureus; SC10820, SC No. 10820 (Erythromycin^R), 10^4 CFU): 3.1 µg/mL (≈ 6.67 µM)
MIC (Pseudomonas aeruginosa; SC9545, SC No. 9545, 10^4 CFU): 25 µg/mL (≈ 53.8 µM)
MIC (Escherichia coli; SC8294, SC No. 8294, 10^4 CFU): 100 µg/mL (≈ 215 µM)
MIC (Escherichia coli; SC10857, SC No. 10857, 10^4 CFU): 12.5 µg/mL (≈ 26.9 µM)

[C-]#[N+][C@]1(C)O[C@@H]1[C@H](O)CCCCCCCCCC(=O)O (relative stereo) [aerocyanidin, [2α(R*),3α]-κ-hydroxy-3-isocyano-3-methyloxiraneundecanoic acid]
stability (stability on storage): less stable in the solid state
activity against gram positive organisms (gram positive organisms): has activity against gram positive organisms
MIC (Staphylococcus aureus; SC1276, SC No. 1276, 10^4 CFU): < 0.05 µg/mL
MIC (Staphylococcus aureus; SC2399, SC No. 2399, 10^4 CFU): < 0.05 µg/mL
MIC (Staphylococcus aureus; SC2400, SC No. 2400, 10^4 CFU): < 0.05 µg/mL
MIC (Streptococcus agalactiae): < 0.05 µg/mL
MIC (Salmonella typhosa): 25 µg/mL (≈ 88.2 µM)
MIC (Streptococcus faecalis): 0.2 µg/mL (≈ 0.706 µM)
MIC (Klebsiella pneumoniae): > 50 µg/mL
MIC (Enterobacter cloacae): 50 µg/mL (≈ 176 µM)
MIC (Klebsiella aerogenes): > 50 µg/mL
MIC (Pseudomonas aeruginosa; SC8329, SC No. 8329, 10^4 CFU): > 50 µg/mL
MIC (Proteus mirabilis): 1.6 µg/mL (≈ 5.65 µM)
MIC (Escherichia coli; SC8294, SC No. 8294, 10^4 CFU): > 50 µg/mL
MIC (Escherichia coli; SC10896, SC No. 10896, 10^4 CFU): 25 µg/mL (≈ 88.2 µM)
MIC (Escherichia coli; SC10909, SC No. 10909, 10^4 CFU): 1.6 µg/mL (≈ 5.65 µM)
MIC (Micrococcus luteus): 0.4 µg/mL (≈ 1.41 µM)
MIC (Shigella sonnei): 25 µg/mL (≈ 88.2 µM)
